How the values were obtained:
GAPDH = GAPDH housekeeping control transcript (RTPCR); type: cell-based, murine
Procedure: Reverse transcriptase-PCR (RTPCR): Total RNA was prepared and isolated by the Tri-Reagent method according to the manufacturer's protocol (Sigma, St. Louis Mo., USA). Total RNA (1 μg) was converted into cDNA using Reverse-iT first strand synthesis kit (Abgene, UK). Amplification of MnSOD and UCP2 sequences was performed by incubating 10 ng equivalents of DNA with the following oligonucleotide primers:
The sequence of glyceraldehyde-3-phosphate dehydrogenase (GAPDH) was amplified as a control using the following primers: Left (sense) 5′-[…]-3′(SEQ ID NO: 9) corresponding to nucleotides 364 to 382 of mouse mRNA (GenBank Accession No. XM 195823.21).
Right (antisense) 5′[…]-3′ (SEQ ID NO: 10) corresponding to nucleotides 683 to 703 of mouse mRNA (GenBank Accession No. XM 195823.21). The expected PCR product was 339 bp. Actual PCR product was approximately 340 bp, measured on 1.25% agarose gel in TAE containing ethidium bromide.
PCR was performed with 28 cycles (25 cycles for GAPDH) of 30 seconds at 96° C., 30 seconds at 58° C. and 1 min at 72° C. RTPCR products were analyzed on 1.3% (w/v) agarose gels.

NF-κB = NF-κB binding activity of nuclear extracts of treated macrophages (EMSA); type: cell-based, murine
Procedure: (§1) Cell culture: Murine J774.2 macrophages (kindly provided by Prof. Dov Zipori from the Weizmann Institute of Science) were grown in RPMI medium supplemented with 10% (w/v) fetal calf serum, penicillin (100 U/ml), streptomycin (100 μg/ml) and 1× glutamine at 37° C. in a humidified atmosphere consisting of 95% air and 5% CO2. Experiments were performed on cells at 60% confluence.
Nuclear extracts: Nuclear Extracts were prepared using a slight modification of the method of Dignam et al (23). Treated cells were washed with cold PBS, scraped and centrifuged. Hypotonic buffer (1 ml, 20 mM HEPES pH 7.0, 10 mM KCl, 1 mM mGCl2, 0.5 mM DTT, 0.1% Triton X-100, 20% glycerol, 2 mM PMSP, 1 mg/ml Aprotonin and Leupeptin) was added to the cell pellets, the pellets were disrupted by pipetting, and centrifuged 3000 RPM for 5 min. The pellets were re-suspended in 100 μl cold extraction buffer (20 mM HEPES pH 7.0, 10 mM KCl, 1 mM mGCl2, 0.5 mM DTT, 0.1% Triton X-100, 20% glycerol, 2 mM PMSF, 1 mg/ml Aprotonin and Leupeptin, 420 mM NaCl). The samples were rotated for 20 min at 4° C., centrifuged 15,000 RPM for 10 min, and supernatants collected. Protein content was measured using Bradford reagent. Samples were stored frozen at minus 70° C.
Electromobility shift assay (EMSA)—Gel shift assays were performed according to the gel shift assay protocol from Promega Corp. (San Luis Obispo, Calif.). A 22-mer double-stranded NF-κB consensus oligonucleotide 5′-[…]-3′ (SEQ ID NO:3), and Sp1 consensus oligonucleotide 5′-[…]-3(SEQ ID NO:4), were labeled with 32P. For each reaction, 2 μg of nuclear extract were incubated with 2 μl of 5× binding buffer for 5 min., 1 μl of the ^32P-labeled oligonucleotide was added at room temperature for 20 min., the samples were prepared by adding 1 μl of dye free loading buffer, and separated using 6% non-denaturing acrylamide gel electrophoresis. The gel was dried and exposed to a phosphoimaging screen for 18 hours and then visualized with a phosphoimager. For specificity, 1 μl of unlabeled consensus oligonucleotide was used to compete with the labeled probe.

J774.2 macrophages [1] = assay: Type of cell death (annexin V-FITC / PI); type: cell-based, murine; conditions: 10 μM, 24 hours; annexin V-FITC and PI
Procedure: Experiments were performed on cells at 60% confluence.
Determination of type of cell death: Type of cell death was determined by dual staining with annexin V-FITC (Santa Cruz Biotechnology, Santa Cruz Calif., USA) and PI, and flow cytometric analysis. Cells were treated with 10 μM selenite for 24 h then collected and re-suspended in binding buffer (10 mM HEPES/NaOH, pH 7.4, 140 mM NaCl, 2.5 mM CaCl2). 2.5 μg/ml annexin V-FITC was added and cells were incubated for 30 min at room temperature, then 0.25 μg/ml PI was added and samples were analyzed by flow cytometry (FACSort, Becton Dickenson and. Co., San Jose, Calif. USA).

J774.2 macrophages [2] = assay: Mitochondrial membrane potential (CMTMRos, flow cytometry); type: cell-based, murine; conditions: 10 μM; LPS + INFγ activated (FIG. 16B)
Procedure: as §1
Evaluation of mitochondrial membrane potential (MMP) in cells—MMP was detected by flow cytometry (FACSort, Becton Dickenson and Co., San Jose, Calif. USA) using the membrane potential-sensitive fluorescent probe MitoTracker Orange (CMTMRos) (Molecular Probes, Oregon, USA). The following fluorescence setting was used: excitation at 488 nm and emission at 575 nm (FL2 channel) (24,25). Macrophage cells (1 million cells/ml) were stained with 0.1 μM CMTMRos for 30 min at 37° C. Accumulation of the dye in the mitochondria was evaluated by flow cytometer analysis as described hereinabove. Data were collected from 10,000 cells.

[3] = in vivo; cited from earlier work

## [Se] [selenium]
GAPDH; LPS + INFγ activated (FIG. 11)
  GADPH expression, activated macrophages: No effect
GAPDH; resting J774.2 (FIGS. 9, 10)
  GADPH RNA levels: No effect
NF-κB; 0.5-5 μM, 72 hours (FIG. 12A)
  NF-κB translocation, resting unactivated macrophages: no effect
NF-κB; 72 hours, then 6 hours LPS + INFγ, range 0.5-5 μM (FIG. 12A)
  lowest concentration with dramatic effect on NF-κB translocation, activated macrophages: 0.5 µM
NF-κB; concentration-dependent (FIG. 12A)
  nuclear import of NF-κB, activated macrophages: dramatically reduced
J774.2 macrophages [1]
  character of cell death: cell death with necrotic characteristics
J774.2 macrophages [2]
  mitochondrial membrane potential (MMP), activated macrophages: downregulates
[3]
  carcinogenesis in male mice: unaffected

— patent US20070026090A1, “Treatment and prevention of inflammatory disease and mitochondrial dysfunction with high dose selenium” (priority 2003, published 2007)
